# Results published in article PMC1660542, “Structure-based discovery of inhibitors of the YycG histidine kinase: New chemical leads to combat Staphylococcus epidermidis infections” (BMC Microbiology, 2006).
# “Also recorded” adds a separate entry of the source. Read-outs that look alike come from different tables or passages of the source.
# Assays:
# S. epidermidis ATCC12228 [1] = assay: MIC assay (broth dilution in tubes, CLSI); assay type: cell-based, Staphylococcus epidermidis; conditions: Staphylococcus epidermidis
# Excerpt: (§1) Staphylococcus epidermidis ATCC12228 and RP62A strains were purchased from the American Type Culture Collection (ATCC, Manassas, USA). Staphylococcus aureus ATCC29213, Escherichia coli ATCC25922 and Pseudomonas aeruginosa ATCC27853 were kindly provided by Dr. Bijie Hu at Zhongshan Hospital (Shanghai, China). S. epidermidis strains se527, se886, se847, seG203, Streptococcus pyogenes strain 144, and Streptococcus mutans strain 128 were all clinical isolates from Zhongshan Hospital and Huashan Hospital (Shanghai, China). If not stated otherwise, S. epidermidis and S. aureus strains were grown at 37°C in tryptic soy broth (TSB, Oxoid) containing 0.25% glucose, E. coli and P. aeruginosa strains were grown at 37°C in Luria-Bertani (LB, Oxoid).
# (§2) MIC assays for the antibacterial activities of the compounds were performed according to the broth micro-dilution (in tubes) method of the Clinical and Laboratory Standards Institute (CLSI) of America. The Minimal Bactericidal Concentration (MBC) was obtained by subculturing 100 μl from each negative (no visible bacterial growth) tube from the MIC assay, onto substance-free Mueller-Hinton agar plates. The plates were incubated at 37°C for 24 hours, and the MBC was defined as the lowest concentration of substance which produced subcultures growing no more than five colonies on each plate.
# S. epidermidis RP62A [2] = assay: MIC assay (broth dilution in tubes, CLSI); assay type: cell-based; conditions: Staphylococcus epidermidis
# Excerpt: as §1, §2
# S. aureus ATCC29213 = assay: MIC assay (broth dilution in tubes, CLSI); assay type: cell-based, Staphylococcus aureus; conditions: for MIC: Staphylococcus aureus, S. aureus ATCC29213, read-out: Minimal inhibitory concentration (MIC)
# Excerpt: as §1, §2
# S. pyogenes 144 = assay: MIC assay (broth dilution in tubes, CLSI); assay type: cell-based, Streptococcus pyogenes; conditions: for MIC: Streptococcus pyogenes, S. pyogenes 144, read-out: Minimal inhibitory concentration (MIC)
# Excerpt: as §1, §2
# S. mutans 128 = assay: MIC assay (broth dilution in tubes, CLSI); assay type: cell-based, Streptococcus mutans; conditions: for MIC: Streptococcus mutans, S. mutans 128, read-out: Minimal inhibitory concentration (MIC)
# Excerpt: as §1, §2
# S. epidermidis ATCC12228 [3] = assay: Minimal bactericidal concentration (MBC) assay; assay type: cell-based; conditions: Staphylococcus epidermidis
# Description: as §2
# S. epidermidis RP62A [4] = assay: Minimal bactericidal concentration (MBC) assay; assay type: cell-based; conditions: Staphylococcus epidermidis
# Description: as §2
# YycG' protein = biological target: T1, YycG' protein (Staphylococcus epidermidis, UniProt Q8CU87); assay: Inhibition of YycG' ATPase activity / autophosphorylation (Kinase-Glo Luminescent Kinase Assay); assay type: biochemical; conditions: 3 μM ATP; for IC50: 4 μg YycG' protein, read-out: IC50 for YycG'; for inhibition at 50 µM: compound 50 μM, 4 μg protein, read-out: Inhibition of YycG' phosphorylation (decrease of ATPase activity)
# T1 construct: of YycG (370aa to 610aa) was amplified by PCR; His-tag (pET28a) (N); made in house; host or cells: E. coli BL21 (pET28a, pETYycG')
# T1 sequence (Q8CU87 370-610): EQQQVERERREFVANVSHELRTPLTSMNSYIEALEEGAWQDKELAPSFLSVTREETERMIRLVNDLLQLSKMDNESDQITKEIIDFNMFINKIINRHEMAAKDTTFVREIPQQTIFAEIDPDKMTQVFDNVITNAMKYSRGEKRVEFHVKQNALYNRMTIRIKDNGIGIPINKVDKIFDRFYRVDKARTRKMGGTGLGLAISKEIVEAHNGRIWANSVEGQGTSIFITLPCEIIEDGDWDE
# Description: The inhibitory activities of the compounds for the ATPase activity of the YycG' protein was measured using the Kinase-Glo™ Luminescent Kinase Assay (Promega, Madison, USA). Briefly, 4 μg YycG' protein was pre-incubated with a series of dilution of compounds in the reaction buffer (40 mM Tris [pH 7.5], 20 mM MgCl2, and 0.1 mg/ml BSA), at 25°C for 30 min. Then 3 μM ATP was added for another incubation of 30 min at 25°C, and Kinase-Glo™ Reagent was added to detect the rest amount of ATP, as recorded from luminescence measurements (RLU). In parallel, theYycG' protein with no addition of compounds was used as the control. The rate of inhibiting protein phosphorylation (Rp) by the compounds was calculated from equation 1:
# Rp=RLU(YycG^′+compound+ATP+Reagent)−RLU(YycG^′+ATP+Reagent)/RLU(ATP+Reagent)−RLU(YycG^′+ATP+Reagent)×100% (1) MathType@MTEF@5@5@+=feaafiart1ev1aaatCvAUfKttLearuWrP9MDH5MBPbIqV92AaeXatLxBI9gBaebbnrfifHhDYfgasaacH8akY=wiFfYdH8Gipec8Eeeu0xXdbba9frFj0=OqFfea0dXdd9vqai=hGuQ8kuc9pgc9s8qqaq=dirpe0xb9q8qiLsFr0=vr0=vr0dc8meaabaqaciaacaGaaeqabaqabeGadaaakeaacqqGsbGudaWgaaWcbaGaeeiCaahabeaakiabg2da9maalaaabaGaeeOuaiLaeeitaWKaeeyvauLaeiikaGIaeeywaKLaeeyEaKNaee4yamMafe4raCKbauaacqGHRaWkcqqGJbWycqqGVbWBcqqGTbqBcqqGWbaCcqqGVbWBcqqG1bqDcqqGUbGBcqqGKbazcqGHRaWkcqqGbbqqcqqGubavcqqGqbaucqGHRaWkcqqGsbGucqqGLbqzcqqGHbqycqqGNbWzcqqGLbqzcqqGUbGBcqqG0baDcqGGPaqkcqGHsislcqqGsbGucqqGmbatcqqGvbqvcqGGOaakcqqGzbqwcqqG5bqEcqqGJbWycuqGhbWrgaqbaiabgUcaRiabbgeabjabbsfaujabbcfaqjabgUcaRiabbkfasjabbwgaLjabbggaHjabbEgaNjabbwgaLjabb6gaUjabbsha0jabcMcaPaqaaiabbkfasjabbYeamjabbwfavjabcIcaOiabbgeabjabbsfaujabbcfaqjabgUcaRiabbkfasjabbwgaLjabbggaHjabbEgaNjabbwgaLjabb6gaUjabbsha0jabcMcaPiabgkHiTiabbkfasjabbYeamjabbwfavjabcIcaOiabbMfazjabbMha5jabbogaJjqbbEeahzaafaGaey4kaSIaeeyqaeKaeeivaqLaeeiuaaLaey4kaSIaeeOuaiLaeeyzauMaeeyyaeMaee4zaCMaeeyzauMaeeOBa4MaeeiDaqNaeiykaKcaaiabgEna0kabigdaXiabicdaWiabicdaWiabcwcaLiaaxMaacaWLjaWaaeWaaeaacqaIXaqmaiaawIcacaGLPaaaaaa@A46C@
# IC50 (the concentration of inhibition of 50% YycG' protein autophosphorylation) was obtained by using the Origin v7.0 software (OriginLab, Northampton, USA).
# SrrB' = assay: Inhibition of SrrB' autophosphorylation (Kinase-Glo); assay type: biochemical, S. epidermidis; conditions: compound 50 μM, 4 μg protein, 3 μM ATP
# [5] = Cytotoxicity on Vero cell (MTT, Cell Proliferation Kit I); assay type: cell-based, African Green-monkey; conditions: African green monkey, Vero cells, highest concentration tested 200 μM
# Description: (§3) Cytotoxicity of the antibacterial compounds on cultured Vero cell was measured by using the Cell Proliferation Kit I (MTT) (Roche, Indianapolis, USA) according to the manufacturer's protocol. Addition of DMSO (1%) in the medium produced a slight cytotoxicity on Vero cell, which could easily be corrected for. Each assay was performed in quadruplicate and repeated three times. The results were converted to percentage of the control (cells only treated with 1% DMSO) and CC50 (concentrations that produce a 50% cytotoxicity effect on Vero cell) was calculated by the Origin v7.0 software (OriginLab, Northampton, USA). Hemolytic activities of the compounds were determined by using healthy human erythrocytes. The erythrocytes were washed three times in sterile saline and resuspended to 5% prior to the assay. […] Cells without compound treatment and cells with 1% Triton-100 treatment were used as 0% and 100% hemolysis controls, respectively. The cell suspensions were incubated for 1 hour at 37°C and centrifuged at 1000×g for 10 min. Volumes of 100 μl supernatants were transferred to another sterile plate and hemoglobin release from the cells was determined at 570 nm. […] The hemolysis assays were repeated twice.
# [6] = Erythrocyte hemolysis assay; assay type: cell-based, human; conditions: human, erythrocytes (5% suspension), 1 hour, 37°C;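 note: compounds tested at their MIC and at 4× MIC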
# Description: as §3
# [7] = tested on: S. epidermidis RP62A mature biofilm cells; assay: Killing biofilm cells of S. epidermidis (CFU count); assay type: cell-based, Staphylococcus epidermidis
# Description: An overnight culture of S. epidermidis strain RP62A was diluted 1:100 in TSB containing 0.25% glucose, then 1 ml bacterial suspension was inoculated into the wells of sterile 12-well polystyrene microtiter plates (Falcon) incubated at 37°C for 24 h. The plates with mature biofilm were washed gently four times with sterile PBS before adding fresh TSB containing the various compounds at their MBC values, and incubated at 37°C for 24 h. The plates were washed again four times with sterile PBS, then the biofilm cells were scraped from the plate and resuspended in 1 ml PBS, and violently vortexed to disintegrate clumps of cells. Next, the suspension was diluted gradually with sterile PBS and subcultured onto substance-free Mueller-Hinton agar plates, incubated at 37°C for 24 h, and the colonies were counted. The fresh medium containing vancomycin at the MBC value and substance-free fresh medium served as the controls. The experiment was repeated three times.
# [8] = ATCC12228, Table 2, as tested on S. epidermidis ATCC 12228, read-out: MICs
# [9] = S. epidermidis ATCC12228 (non-biofilm-forming strain), read-out: Minimal inhibitory concentration (MIC)
# [10] = S. epidermidis RP62A (biofilm-forming strain), read-out: Minimal inhibitory concentration (MIC)
# [11] = S. epidermidis RP62A, read-out: Minimal bactericidal concentration (MBC)
# [12] = at 4 × MIC (number in parenthesis)
# [13] = at MIC for S. epidermidis ATCC12228
SMILES,MIC (S. epidermidis ATCC12228 [1]; [8]) [µM],MIC (S. epidermidis ATCC12228 [1]; [9]) [µM],MIC (S. epidermidis RP62A [2]; [10]) [µM],Inhibitory effect against S. aureus (S. aureus ATCC29213),MIC (S. aureus ATCC29213) [µM],Inhibitory effect against Streptococcus pyogenes (S. pyogenes 144),MIC (S. pyogenes 144) [µM],MIC (S. mutans 128) [µM],MBC (S. epidermidis ATCC12228 [3]) [µM],MBC (S. epidermidis RP62A [4]; [11]) [µM],IC50 (YycG' protein) [µM],inhibition at 50 µM (YycG' protein) [%],Inhibition of SrrB' phosphorylation (SrrB') [%],CC50 [5] [µM],"hemolysis at 1 h [6, 12] [%]","hemolysis at 1 h [6, 13] [%]",further results
O=C(NNC(=O)c1c(Br)c(Br)c(Br)c(Br)c1C(O)O)c1cc(Cl)ccc1O [Compound 1],50,50,50,inhibited the growth,50,inhibited the growth,200,> 200,200,200,48,52,3,> 200,< 0.1,< 0.1,
Cc1ccc(C(O)O)cc1-c1ccc(/C=N/NC(=O)c2cc3c(ccc4ccccc43)o2)o1 [Compound 4],12.5,12.5,12.5,,> 200,only active against S. pyogenes,50,> 200,50,100,13.5,76,3,> 200,0.4,0.1,
CCOC(=O)C1=C(c2ccccc2)N=c2s/c(=C/c3ccc(-c4cccc(C(O)O)c4)o3)c(=O)n2C1c1ccc2c(c1)OCO2 (stereo not shown) [Compound 5],6.25,6.25,6.25,effective,6.25,effective,1.56,6.25,25,25,14,73,,> 200,0.3,0.1,"Inhibitory effect against Streptococcus mutans (S. mutans 128): effective; Reduction of the CFU of the biofilm cells ([7]; 24-hour-old biofilm, at MBC value, relative to untreated control): more than 100 fold"
"CN(C)[C@@H]1C(O)=C(C(N)=O)C(=O)[C@@]2(O)C(O)=C3C(=O)c4c(O)cccc4[C@@](C)(O)[C@H]3C[C@@H]12 [Tet, tetracycline, reference compound]",,,,,,,,,,,,,,,,,"MIC (S. epidermidis ATCC12228 [1]; ATCC12228, conventional antibiotics used in the hemolysis assay, strain not printed at the place, read-out: MIC): 0.25 µg/mL"
"CN[C@H](CC(C)C)C(=O)N[C@H]1C(=O)N[C@@H](CC(N)=O)C(=O)N[C@H]2C(=O)N[C@H]3C(=O)N[C@H](C(=O)N[C@H](C(=O)O)c4cc(O)cc(O)c4-c4cc3ccc4O)[C@H](O)c3ccc(c(Cl)c3)Oc3cc2cc(c3O[C@@H]2O[C@H](CO)[C@@H](O)[C@H](O)[C@H]2O[C@H]2C[C@](C)(N)[C@H](O)[C@H](C)O2)Oc2ccc(cc2Cl)[C@H]1O [Vancomycin, reference compound]",,,,,,,,,,,,,,,,,MIC (S. epidermidis RP62A [2]; RP62A): 1 µg/mL; MBC (S. epidermidis RP62A [4]; RP62A): 4 µg/mL; Killing of biofilm cells ([7]; concentration increased up to 128 μg/ml): no increased killing; also recorded: almost without effect
